Laboratory results published in patent US20060228417A1, “Mucoadhesive composition comprising polyacrylate and chemoattractant” (priority 2003, published 2006).
Where no end group is shown, it is not given here.

What was measured:
[1] = system: DC in organotypic cultures of HPV-transformed keratinocytes; assay: DC infiltration depth in organotypic cultures of HPV-transformed keratinocytes; format: cell-based, human; conditions: 48 hours after chemoattractant addition; GM-CSF 800 U/ml, MCP-1 500 ng/ml, HNP2 750 ng/ml (FIG. 6A)
Text: (§1) DC were generated from the adherent fraction of human PBMC (Peripheral Blood Mononuclear Cells) with 800 U/ml GM-CSF (Novartis, Brussels) and 20 U/ml IL-4 (Biosource Europe, Nivelles, Belgium), as previously described (16). DC generated for this study constituted a 90% pure cell population based on several criteria including morphology, forward-scatter and side-scatter values observed by FACS (Fluorescence Activated Cell Sorter) analysis and surface phenotype (CD1a+, CD14−, CD4+, CD54+, . . . ).
Organotypic cultures of HPV-transformed keratinocytes (SiHa cell line (10)) were prepared as previously reported (17). After a 2 week stratification of keratinocytes, labeled DC were seeded on top of the in vitro formed epithelium at a concentration of 2×10^5 cells/50 μl of culture medium. The organotypic culture was then placed on the polycarbophil gel containing or not 800 U/ml of GM-CSF. In order to maintain the culture, the polycarbophil gel (1.5 w/w) was prepared by dispersing the Noveon AA1 in keratinocyte growth medium. […]
The density of DC migrating into the epithelial layer was assessed by the avidin-biotin-peroxidase technique (Vectastain ABC kit, Vector laboratories, Burlingame, Calif.) with an anti-CD1a monoclonal antibody (clone NA1/34 from Dako, Glostrup, Denmark). […] The DC infiltration in organotypic cultures was evaluated by measuring the surface of immunostained cells with a computerized system of image analysis (CAS, Becton Dickinson, Erembodegem, Belgium) following a method previously described (6). The entire surface of each culture section was analyzed and 5 sections of each culture were stained with anti-CD1a. The positive surface was expressed as the percentage of the total surface analyzed. In additional experiments, the LC/DC infiltration depth in the organotypic culturs was evaluated by measuring the distance between the top of the epithelium and individual DC with a computerized system of image analysis (CAS, Becton Dikinson, Erembodegem, Belgium). We then calculated the ratio between the infiltration depth and the thickness of the culture. […]

[2] = system: DC in organotypic cultures of HPV-transformed keratinocytes (SiHa cell line); assay: DC infiltration into organotypic cultures of HPV-transformed keratinocytes (CD1a labeled surface); format: cell-based, human; conditions: 800 U/ml GM-CSF, 48 h
Text: as §1
The DC were labeled with a lipophilic fluorescent marker (CM-DiL, Molecular Probes, Leiden, The Netherlands) according to a previously described procedure with minor modifications. Briefly, 4×106 DC were resuspended in 1 ml of PBS and heated to 37° C. […]
The density of DC migrating into the epithelial layer was assessed by the avidin-biotin-peroxidase technique (Vectastain ABC kit, Vector laboratories, Burlingame, Calif.) with an anti-CD1a monoclonal antibody (clone NA1/34 from Dako, Glostrup, Denmark). […] The DC infiltration in organotypic cultures was evaluated by measuring the surface of immunostained cells with a computerized system of image analysis (CAS, Becton Dickinson, Erembodegem, Belgium) following a method previously described (6). The entire surface of each culture section was analyzed and 5 sections of each culture were stained with anti-CD1a. […]

[3] = system: human DC in xenografts of HPV-transformed keratinocytes (CasKi cell line); assay: Xenograft assay in NOD/SCID mice: DC recruitment into transplants of HPV-transformed keratinocytes; format: in vivo
Experimental: HPV-transformed keratinocytes (2×10^5, CasKi cell line, ATCC, CRL-1550) were plated on collagen gel (2 mg/ml of type I collagen isolated from rat tail tendons) inserted in Teflon rings (Renner, Dannstadt, Germany) and maintained in culture for one day before transplantation onto mice. Twelve-week-old NOD-scid/scid mice were used for this study. They were housed under sterile conditions and water and feed were provided ad libitum. Before transplantation, the cells were washed and the medium was drained. […] Fluorescent DC were counted in the epithelium and, after anti-keratin immunolabeling, the epithelial surface was evaluated with a computerized system of image analysis (CAS, Becton Dickinson, Erembodegem, Belgium). Infiltration results were expressed as numbers of DC per mm^2 of epithelium. […]
Graft cryosections (5 μm in thickness) were fixed in acetone at −20° C. and in 80% methanol at 4° C. […] After washes in PBS, coverslips were mounted and labeling was analysed under an microscope equipped with epifluorescence optics.
A control group of mice was treated with PBS alone. […] The DC infiltration in transplants was assessed by looking for stained DC in histological sections. […] Quantitative analysis of DC infiltration was performed by determining the number of DC per mm2 of epithelial tissue.

Substance	DC infiltration depth in organotypic culture [1]	DC infiltration, CD1a labeled surface ([2]; mean ± SD (n=5))	density of fluorescent-labeled DC within the epithelial sheet ([2]; versus absence of GM-CSF (FIG. 4))	recruitment of DC in the tumor grafts ([3]; GM-CSF applied in transplantation chamber versus control mice (FIG. 5))	DC infiltration in the grafts, number of DC per mm2 of epithelial tissue ([3]; NOD-SCID mice, 200 μl injected twice into transplantation chamber, 4×10^5 U/ml or U/g, mean ± SD (n=5)) [DC/mm2]
Human Neutrophil Peptide-2 (CYCRIPACIAGERRYGTCIYQGRLWAFCC; ends and bridges not checked; cysteine pairing not given here; UniProt P59665 66-94, looked up) [HNP2, human neutrophil defensin 2, Sigma-Aldrich]	reached an infiltration level equivalent to that obtained with GM-CSF	–	–	–	–
Monocyte Chemotactic Protein 1 [MCP1]	reached an infiltration level equivalent to that obtained with GM-CSF	–	–	–	–
granulocyte macrophage—colony stimulating factor [GM-CSF]	significant increase in the density of DC observed in the epithelial layer	28.33±8.11 % of CD1a labeled surface	significant increase in the density of DC	significant (p<0.001) recruitment of DC	16.6±14.6
